Laboratory results published in ChEMBL document CHEMBL1938312, “Design and combinatorial synthesis of a novel kinase-focused library using click chemistry-based fragment assembly” (Bioorg Med Chem Lett, 2012).
Activity calls are given as the source filed them. The calls are words filed in the database; no cut-off is given here.

What was measured:
[1] = molecular target: T1, 5'-AMP-activated protein kinase subunit beta-1 (Homo sapiens) (UniProt Q9Y478); experiment: Inhibition of AMPKbeta1 at 10 uM by colorimetric analysis
T1 sequence (whole entry): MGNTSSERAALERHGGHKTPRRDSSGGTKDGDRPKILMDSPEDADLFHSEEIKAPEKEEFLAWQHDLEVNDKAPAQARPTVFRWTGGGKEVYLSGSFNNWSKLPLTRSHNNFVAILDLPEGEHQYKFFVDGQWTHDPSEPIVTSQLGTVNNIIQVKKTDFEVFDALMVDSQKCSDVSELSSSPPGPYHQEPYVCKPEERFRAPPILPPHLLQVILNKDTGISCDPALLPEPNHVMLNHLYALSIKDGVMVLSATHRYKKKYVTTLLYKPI

[2] = molecular target: T2, Tyrosine-protein kinase JAK3 (Homo sapiens) (UniProt P52333); experiment: Inhibition of JAK3 at 10 uM by colorimetric analysis
T2 sequence (whole entry): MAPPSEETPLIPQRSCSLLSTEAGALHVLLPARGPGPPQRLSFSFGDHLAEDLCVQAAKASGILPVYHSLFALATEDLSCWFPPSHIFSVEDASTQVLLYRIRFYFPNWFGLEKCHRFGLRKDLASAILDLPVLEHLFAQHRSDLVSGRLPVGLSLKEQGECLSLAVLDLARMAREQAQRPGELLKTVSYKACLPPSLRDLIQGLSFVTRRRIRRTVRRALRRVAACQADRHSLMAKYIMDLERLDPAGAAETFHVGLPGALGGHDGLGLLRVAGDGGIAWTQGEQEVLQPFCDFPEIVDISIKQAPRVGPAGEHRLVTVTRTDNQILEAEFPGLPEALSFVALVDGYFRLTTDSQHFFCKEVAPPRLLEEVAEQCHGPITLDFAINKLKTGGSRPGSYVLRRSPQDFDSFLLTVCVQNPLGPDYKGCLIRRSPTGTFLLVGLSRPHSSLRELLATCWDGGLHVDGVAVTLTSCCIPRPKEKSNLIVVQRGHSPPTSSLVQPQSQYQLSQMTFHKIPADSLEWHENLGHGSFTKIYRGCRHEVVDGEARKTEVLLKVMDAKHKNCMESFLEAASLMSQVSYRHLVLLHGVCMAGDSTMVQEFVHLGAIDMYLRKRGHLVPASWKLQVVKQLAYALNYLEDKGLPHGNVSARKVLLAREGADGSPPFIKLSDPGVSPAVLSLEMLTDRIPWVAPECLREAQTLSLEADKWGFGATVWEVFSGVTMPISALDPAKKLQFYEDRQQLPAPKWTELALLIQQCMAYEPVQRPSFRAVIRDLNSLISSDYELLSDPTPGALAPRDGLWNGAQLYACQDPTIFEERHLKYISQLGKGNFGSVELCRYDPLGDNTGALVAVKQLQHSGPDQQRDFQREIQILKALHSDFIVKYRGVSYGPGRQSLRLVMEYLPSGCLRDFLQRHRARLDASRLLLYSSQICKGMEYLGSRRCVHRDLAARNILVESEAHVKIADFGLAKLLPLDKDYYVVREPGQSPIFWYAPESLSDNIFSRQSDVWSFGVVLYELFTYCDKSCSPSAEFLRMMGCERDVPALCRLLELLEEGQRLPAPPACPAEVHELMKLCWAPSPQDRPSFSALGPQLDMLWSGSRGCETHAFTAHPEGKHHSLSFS

[3] = molecular target: Glycogen synthase kinase-3 beta (Homo sapiens, UniProt P49841); experiment: Inhibition of GSK3-beta by colorimetric analysis
Glycogen synthase kinase-3 beta, sequence (P49841 whole entry): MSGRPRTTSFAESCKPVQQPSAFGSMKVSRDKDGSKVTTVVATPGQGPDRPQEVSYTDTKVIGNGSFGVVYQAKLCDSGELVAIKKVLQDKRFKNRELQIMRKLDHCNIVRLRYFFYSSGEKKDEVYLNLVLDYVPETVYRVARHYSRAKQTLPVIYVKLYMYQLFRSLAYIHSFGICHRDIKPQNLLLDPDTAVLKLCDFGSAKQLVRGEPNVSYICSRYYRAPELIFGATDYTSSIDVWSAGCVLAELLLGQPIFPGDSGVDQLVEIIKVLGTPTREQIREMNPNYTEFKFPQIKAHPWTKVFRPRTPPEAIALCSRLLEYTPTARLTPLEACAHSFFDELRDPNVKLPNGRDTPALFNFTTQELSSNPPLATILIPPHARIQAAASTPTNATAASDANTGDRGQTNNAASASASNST

In the case of `Clc1cccc(-n2nncc2-c2ccncc2)c1`, the inhibition [1] is reported as “Active” and the inhibition [2] is reported as “inactive”.
With `Clc1cccc(-n2cc(-c3ccncc3)nn2)c1` the IC50 [3] was 1.8 µM, the inhibition [1] was “Active” and the inhibition [2] was “inactive”.
With `Clc1ccc(-n2cc(-c3ccncc3)nn2)cc1` the IC50 [3] was 1.1 µM, the inhibition [1] was “Active” and the inhibition [2] was “inactive”.
In the case of `Clc1ccc(-n2nncc2-c2ccncc2)cc1`, the inhibition [1] is reported as “Active” and the inhibition [2] is reported as “inactive”.
